Data on 77 molecules can be found in the RepoRT retention time repository (doi:10.1016/j.aca.2019.02.001).

A short description of this series: RP, Agilent ZORBAX Eclipse XDB-C18, 100 × 2.1 mm, 1.8 µm, 50 °C, 0.4 mL/min, estimated dead time 0.55 min; A: water + 0.1% formic acid; B: methanol; gradient (min/%B) 0/30 2/30 5/52 15/65 20/78 22.5/78 29/90 38/100. The following applies: stereoisomer not certain.
Take `NCCCCC(N)C(=O)O` (configuration not stated): the LC retention time was 16.2 min.

On to `O=C(O)C1CCCN1` (configuration not stated), for which the LC retention time is 8.37 min. As for `NCCCCNCCCN`, the figure is 9.8 min; as for `CCCCC(CC)C(=O)O` (configuration not stated), 20.2 min; as for `CC(C)CC(N)C(=O)O` (configuration not stated), 11.7 min. Next, `CC(CCC(=O)O)C1CCC2C3CCC4CC(O)CCC4(C)C3CCC12C` (configuration not stated): 26.2 min; `CCCCCCCCCCCCCCCCCC(=O)O`: 31.5 min; `CC(CCC(=O)O)C1CCC2C3C(O)CC4CC(O)CCC4(C)C3CC(O)C12C` (configuration not stated): 24.2 min. In the case of `CCC(C)CC(=O)O` (configuration not stated), the LC retention time was 16.7 min.

As to `CCCCCCCCCCCCCCC(=O)O`, the LC retention time was 28.4 min. Next, `Nc1c(O)cccc1C(=O)CC(N)C(=O)O` (configuration not stated): 21 min. As for `CCC=CCC=CCC=CCCCCCCCC(=O)O`, the figure is 27.5 min. As for `NC(=O)CCC(N)C(=O)O` (configuration not stated), the figure is 4.45 min. Consider `Nc1c(O)cccc1C(=O)O`, for which the LC retention time is 15.7 min. `CCCCCCCCCC(=O)O`: the LC retention time was 24.3 min.

For the molecule `NC(N)=NCCCC(N)C(=O)O` (configuration not stated), the LC retention time was 3.02 min. For `CSCCC(N)C(=O)O` (configuration not stated), the LC retention time is 9.06 min.

With `CC(=O)O`, the LC retention time was 8.11 min.

As for `Nc1ccccc1C(=O)CC(N)C(=O)O` (configuration not stated), the LC retention time is 9.21 min. Next, `CCCCCC=CCC=CCC=CCC=CCCCC(=O)O`: 28.7 min; `O=C(O)C(O)Cc1c[nH]c2ccccc12` (configuration not stated): 12.1 min; `NC(CO)C(=O)O` (configuration not stated): 5.14 min. For `NC(=O)CC(N)C(=O)O` (configuration not stated), the LC retention time is 3.75 min. Next, `CC(=O)NCCc1c[nH]c2ccc(O)cc12`: 12.2 min; `O=C(O)c1cc(=O)c2ccccc2[nH]1`: 17.4 min. As for `CCCCCCCCC=CCCCCCCCCCCCC(=O)O`, the figure is 32.9 min; as for `NCCCCN`, 17.6 min; as for `CCC=CCC=CCC=CCC=CCC=CCC=CCCC(=O)O`, 28.5 min. As for `CCCCCCCCCCCCCCCCCCCCCC(=O)O`, the figure is 34 min; as for `NCCCNCCCCNCCCN`, 6.5 min.

Consider `NCCc1c[nH]c2ccccc12`, for which the LC retention time is 13.4 min. For `COc1cc2c(CCNC(C)=O)c[nH]c2cc1O`, the LC retention time was 11.9 min.

As for `CCCCCCCCC=CCCCCCCCC(=O)O`, the LC retention time is 30.5 min. As for `CCCCCCCCCCCCC(=O)O`, the figure is 26.4 min. With `CCCCCCC=CCCCCCCCC(=O)O`, the LC retention time was 27.9 min. As for `CC(N)C(=O)O` (configuration not stated), the figure is 6.78 min; as for `NCC(=O)O`, 5.85 min; as for `NC(Cc1cnc[nH]1)C(=O)O` (configuration not stated), 2.35 min. Regarding `CCC=CCC=CCC=CCC=CCC=CCCCC(=O)O`, the LC retention time was 27.5 min. Consider `CCC(C)C(N)C(=O)O` (configuration not stated), for which the LC retention time is 11.4 min. Next, `CC(O)C(N)C(=O)O` (configuration not stated): 6.29 min; `CC(C)CCC(=O)O`: 17.1 min; `CCCCCCCCC=CCCCCCCCCCCCCCC(=O)O`: 34.2 min. Next, `CCCCCC(=O)O`: 17.4 min. As for `CCCCCCCCCCCCCC(=O)O`, the figure is 27.3 min; as for `CCCCCC(C)C(=O)O` (configuration not stated), 20.6 min; as for `CCCCCCCCC=CCCCCCCCCCC(=O)O`, 31.8 min. Turning to `O=C(O)Cc1c[nH]c2ccccc12`, the LC retention time was 13.4 min.

With `CCCCC(C)C(=O)O` (configuration not stated), the LC retention time was 18.9 min. Next, `O=C(O)c1cccnc1C(=O)O`: 8.32 min. Regarding `CCCCCC=CCC=CCCCCCCCC(=O)O`, the LC retention time is 28.8 min. `O=C(O)c1cc(=O)c2cccc(O)c2[nH]1`: the LC retention time is 9.89 min. Next, `CC(C)CC(=O)O`: 14 min; `NC(Cc1c[nH]c2ccccc12)C(=O)O` (configuration not stated): 9.89 min. Turning to `CCCCCCCCCCCCCCCC(=O)O`, the LC retention time was 29.8 min. As for `NC(CS)C(=O)O` (configuration not stated), the figure is 6.31 min; as for `CCCCCCC(=O)O`, 19.7 min; as for `CC(C)C(=O)O`, 11.4 min.

With `CCCCCCCC(=O)O`, the LC retention time was 21.4 min. As for `O=C(O)Cc1c[nH]c2ccc(O)cc12`, the figure is 12.1 min; as for `NC(Cc1ccc(O)cc1)C(=O)O` (configuration not stated), 20.5 min; as for `CC(C)C(N)C(=O)O` (configuration not stated), 9.34 min. As for `CCCCCCCCC(=O)O`, the figure is 23 min; as for `COc1ccc2[nH]cc(CC(=O)O)c2c1`, 12.1 min; as for `CCCCC(=O)O`, 14.5 min. As for `CCCC(=O)O`, the figure is 11.8 min; as for `CC(CCC(=O)O)C1CCC2C3C(O)CC4CC(O)CCC4(C)C3CCC12C` (configuration not stated), 24.9 min; as for `O=C(O)C(=O)Cc1c[nH]c2ccccc12`, 15.5 min. For `NCCO`, the LC retention time was 5.87 min. As for `O=C(O)CCCC(=O)C(=O)O`, the figure is 7.25 min; as for `CC(CCC(=O)O)C1CCC2C3CCC4CC(O)CCC4(C)C3CC(O)C12C` (configuration not stated), 25.2 min; as for `CCCCCCCCCCCCCCCCCCCCC(=O)O`, 33.4 min. As to `NC(Cc1ccccc1)C(=O)O` (configuration not stated), the LC retention time was 11.8 min. Next, `CCCCCCCCCCCCCCCCCCC(=O)O`: 32.1 min; `CCCCC(C)CCC(=O)O` (configuration not stated): 22.5 min; `CCCCCCCCCCCC(=O)O`: 25.6 min. Regarding `CCC(=O)O`, the LC retention time was 9.67 min.
